Laboratory results as given in PubChem BioAssay AID1963834 (Molecular Pharmacology Branch, DTP, NCI, 2024).

System: 873145-292-R-J1-PDC complex spheroid viability
Test: Anticancer human tumor 873145-292-R-J1-PDC patient-derived renal clear cell carcinoma cell line growth inhibition [POLQ]
Settings: for IC50: curve of first compound; for viability, T/C: stronger effect = lower value
Summary of the method: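 Growth inhibition in 3D: complex spheroids (tumor PDC, HUVEC, MSC) treated with POLQ inhibitor combinations; where Cmax unknown, highest tested concentration 10 microM, except SN-38 at 1 microM.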

[1] = second compound 0.0316 µM, first compound 0.00316 µM
[2] = second compound 0.0316 µM, first compound 0.01 µM
[3] = second compound 0.0316 µM, first compound 0.0316 µM
[4] = second compound 0.0316 µM, first compound 0.1 µM
[5] = second compound 0.1 µM, first compound 0.00316 µM
[6] = second compound 0.1 µM, first compound 0.01 µM
[7] = second compound 0.1 µM, first compound 0.0316 µM
[8] = second compound 0.1 µM, first compound 0.1 µM
[9] = second compound 0.316 µM, first compound 0.00316 µM
[10] = second compound 0.316 µM, first compound 0.01 µM
[11] = second compound 0.316 µM, first compound 0.0316 µM
[12] = second compound 0.316 µM, first compound 0.1 µM
[13] = second compound 1 µM, first compound 0.00316 µM
[14] = second compound 1 µM, first compound 0.01 µM
[15] = second compound 1 µM, first compound 0.0316 µM
[16] = second compound 1 µM, first compound 0.1 µM
[17] = second compound 3.16 µM, first compound 0.00316 µM
[18] = second compound 3.16 µM, first compound 0.01 µM
[19] = second compound 3.16 µM, first compound 0.0316 µM
[20] = second compound 3.16 µM, first compound 0.1 µM
[21] = second compound 10 µM, first compound 0.00316 µM
[22] = second compound 10 µM, first compound 0.01 µM
[23] = second compound 10 µM, first compound 0.0316 µM
[24] = second compound 10 µM, first compound 0.1 µM
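Note: spheroids exposed to compounds for 7 days before viability readout.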
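Throughout, for viability, T/C: luminescence signal used as surrogate for viable cell content; 100% = DMSO vehicle control viability.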

CCc1c2c(nc3ccc(O)cc13)-c1cc3c(c(=O)n1C2)COC(=O)[C@]3(O)CC + Nc1ccc(C#CCN(C(=O)Cc2ncc(C(F)(F)F)cc2C(F)(F)F)c2ccc(F)cc2)nn1
IC50 (second compound 0.0316 µM): 143 nM | IC50 (second compound 0.1 µM): 66.2 nM | IC50 (second compound 0.316 µM): 119 nM | IC50 (second compound 1 µM): 114 nM | IC50 (second compound 3.16 µM): 79 nM | IC50 (second compound 10 µM): 173 nM | viability, T/C [1]: 104% | viability, T/C [2]: 99.2% | viability, T/C [3]: 62.1% | viability, T/C [4]: 59.2% | viability, T/C (second compound 0.0316 µM, first compound 0.316 µM): 44.1% | viability, T/C (second compound 0.0316 µM, first compound 1 µM): 36.2% | viability, T/C [5]: 106% | viability, T/C [6]: 102% | viability, T/C [7]: 60% | viability, T/C [8]: 48.7% | viability, T/C (second compound 0.1 µM, first compound 0.316 µM): 50.9% | viability, T/C (second compound 0.1 µM, first compound 1 µM): 30.2% | viability, T/C [9]: 114% | viability, T/C [10]: 87.7% | viability, T/C [11]: 62.2% | viability, T/C [12]: 54.5% | viability, T/C (second compound 0.316 µM, first compound 0.316 µM): 44.5% | viability, T/C (second compound 0.316 µM, first compound 1 µM): 28.9% | viability, T/C [13]: 99.8% | viability, T/C [14]: 85.2% | viability, T/C [15]: 66.4% | viability, T/C [16]: 51.5% | viability, T/C (second compound 1 µM, first compound 0.316 µM): 41.7% | viability, T/C (second compound 1 µM, first compound 1 µM): 39.9% | viability, T/C [17]: 94.5% | viability, T/C [18]: 97.8% | viability, T/C [19]: 67.6% | viability, T/C [20]: 47.9% | viability, T/C (second compound 3.16 µM, first compound 0.316 µM): 42% | viability, T/C (second compound 3.16 µM, first compound 1 µM): 35.9% | viability, T/C [21]: 111% | viability, T/C [22]: 94.5% | viability, T/C [23]: 66.8% | viability, T/C [24]: 55.8% | viability, T/C (second compound 10 µM, first compound 0.316 µM): 47.4% | viability, T/C (second compound 10 µM, first compound 1 µM): 34.9%

Cn1ncnc1[C@H]1c2n[nH]c(=O)c3cc(F)cc(c23)N[C@@H]1c1ccc(F)cc1 + Nc1ccc(C#CCN(C(=O)Cc2ncc(C(F)(F)F)cc2C(F)(F)F)c2ccc(F)cc2)nn1
IC50 (second compound 0.0316 µM): > 100 nM | IC50 (second compound 0.1 µM): > 100 nM | IC50 (second compound 0.316 µM): > 100 nM | IC50 (second compound 1 µM): > 100 nM | IC50 (second compound 3.16 µM): > 100 nM | IC50 (second compound 10 µM): > 100 nM | viability, T/C (second compound 0.0316 µM, first compound 0.000316 µM): 124% | viability, T/C (second compound 0.0316 µM, first compound 0.001 µM): 103% | viability, T/C [1]: 90.9% | viability, T/C [2]: 99.3% | viability, T/C [3]: 106% | viability, T/C [4]: 104% | viability, T/C (second compound 0.1 µM, first compound 0.000316 µM): 105% | viability, T/C (second compound 0.1 µM, first compound 0.001 µM): 99.3% | viability, T/C [5]: 107% | viability, T/C [6]: 91.8% | viability, T/C [7]: 102% | viability, T/C [8]: 99.6% | viability, T/C (second compound 0.316 µM, first compound 0.000316 µM): 97% | viability, T/C (second compound 0.316 µM, first compound 0.001 µM): 108% | viability, T/C [9]: 99.2% | viability, T/C [10]: 96.7% | viability, T/C [11]: 98.8% | viability, T/C [12]: 96.8% | viability, T/C (second compound 1 µM, first compound 0.000316 µM): 94.9% | viability, T/C (second compound 1 µM, first compound 0.001 µM): 100% | viability, T/C [13]: 96.1% | viability, T/C [14]: 97.1% | viability, T/C [15]: 95.9% | viability, T/C [16]: 96.3% | viability, T/C (second compound 3.16 µM, first compound 0.000316 µM): 92.1% | viability, T/C (second compound 3.16 µM, first compound 0.001 µM): 108% | viability, T/C [17]: 97.2% | viability, T/C [18]: 95.3% | viability, T/C [19]: 95.8% | viability, T/C [20]: 95.8% | viability, T/C (second compound 10 µM, first compound 0.000316 µM): 107% | viability, T/C (second compound 10 µM, first compound 0.001 µM): 110% | viability, T/C [21]: 108% | viability, T/C [22]: 117% | viability, T/C [23]: 107% | viability, T/C [24]: 103%
